Several values for one entry are separate records, joined by “and”; a condition that tells them apart may be missing. Identical values can stand only once. Where no end group is shown, it is not given here.
Legend:
Numax™ (MEDI-524) = Numax™ (MEDI-524) (Homo sapiens, UniProt P01834+P01857); assay: Binding ELISA of F-peptides; conditions: peptide coated on plate, MEDI-524 detected with anti-human IgG-HRP
Method: Based in part upon the results of the MARM analysis above, F peptides were synthesized (done by AnaSpec, Inc. San Jose, Calif.). Each well of the assay plate was coated with […] of […] of a particular soluble RSV F-Peptide overnight at 2-8° C. After the plate was aspirated and washed with PBS/0.05% Tween-20 buffer, it was blocked by incubating with PBS/0.05% Tween-20/0.5% BSA buffer for one hour at ambient temperature. The plate was washed and MEDI-524 standard curve samples, test samples, MEDI-524 Reference Standard, and negative control were added to the washed plate. Following a one-hour incubation at ambient temperature, the plate was washed, and […] of a goat anti-human IgG-HRP (horseradish peroxidase) at 1:16,000 dilution was added to the plate. After washing, […] of 3,3′,5,5′-tetramethylbenzidine (TMB) substrate was then added to the plate and incubated at ambient temperature protected from light for 10 minutes. The enzymatic reaction was stopped by adding […] of 2N H2SO4, and the absorbance at 450 nm was measured using a microplate reader. […] After meeting all system suitability requirements, as well as meeting the criteria of the parallelism test, the ED50 ratio of the test sample to Reference Standard was calculated, and the results were expressed as a percentage of the Reference Standard binding activity. […]

MEDI-524 Fab = target: T1, MEDI-524 Fab (Homo sapiens, UniProt P01834+P01857); assay: Isothermal titration calorimetry (ITC) of F peptides with MEDI-524 Fab; assay type: binding; conditions: at 18° C., 25 mM His, pH 6.07
T1 construct: 0.088 mg/mL (1.88 μM-46.3 KDa) of MEDI-524 Fab
Method: For this set of experiments, […] (1.16 μM-148.4 KDa) of MEDI-524 Mab and 0.088 mg/mL (1.88 μM-46.3 KDa) of MEDI-524 Fab, both in 25 mM His, pH 6.07 were used. On the other hand, 250 μL of 1 mg/mL of the different peptides dissolved in H2O, were provided by ABC. The peptides were then diluted into the appropriate volume of buffer to give a final concentration of 50 μM. The ITC experiments were run at 18° C. with the macromolecule (Mab or Fab) in the cell, by doing ˜26 injections of 10 μL of peptides, spaced 360 sec with constant stirring. The data fitting was accomplished by subtracting the average value of the few last injections as the buffer and unspecific heat of dilution contributions. […] A note apart is the fact that the observed binding capacity (N) increases with the length of the peptide, indicating possibly an extra conformational factor in the binding event. The entropic contribution: For the peptides SEQ ID NOs.24 and 26, the entropic factor seems to be similar; the extra amino acids at the end of the N-terminal seems not to affect greatly the binding parameters. On the other hand, the elongation at the C-terminal seems to decrease slightly the binding enthalpy, the binding constant, as well as the entropic factor. […] The binding constant seems to be smaller (weaker) for both 30-mer peptides respect to the 26-mer.

Numax™ = Numax™ (Homo sapiens, UniProt P01834+P01857); assay: Biacore kinetic analysis of F peptides on captured Numax™; assay type: binding; conditions: F peptide 100 nM over captured Numax™, Biacore 3000
Method: All studies were performed using Sensor Chip CM5 (Biacore AB, Uppsala, Sweden) which contains a carboxymethyl (CM) dextran matrix and a Biacore® 3000 surface plasmon resonance (SPR) biosensor (Biacore AB, Uppsala, Sweden).
Numax™ was captured via a high-affinity interaction between the Fc portion of Numax™ and a goat anti-human IgG(Fc) (KPL, Inc., Gaithersburg, Md.). Goat anti-human IgG(Fc) was covalently attached to the CM dextran matrix using amine coupling chemistry. Two anti-human IgG(Fc)-specific surfaces were created. Numax™ was diluted to 10.9 μg/mL with HBS-EP and flowed for 1 min. across one of the anti-human IgG (Fc) surfaces at a flow rate of 5 μL/min. The other anti-human IgG(Fc) surface was used as a reference surface. F peptide was prepared by dilution in HBS-EP (0.01 M Hepes pH 7.4, 0.15 M NaCl, 3 mM EDTA, 0.005% surfactant P20) to a final concentration of 100 nM. F peptide was injected for 1 min. in a serial-flow manner across the reference surface and the Numax™-specific surface. Dissociation of bound F peptide was monitored for 2 min in the presence of HBS-EP. After this dissociation period, Numax™ and F peptide were removed with a 30-sec injection of 10 mM glycine pH 1.7 (Biacore AB, Uppsala, Sweden). Because of the removal of Numax™, it was necessary to create a new Numax™-specific surface prior to the injection of each F peptide.

MEDI-524 Mab = assay: Isothermal titration calorimetry (ITC) of F peptides with MEDI-524 Mab; assay type: binding; conditions: 25 mM His, pH 6 at 10° C.
Method: To evaluate the binding properties of the wild-type peptide (SEQ ID NO.28) to Numax™/MEDI-524 by using the ITC technique. The MEDI-524 Mab was titrated with SEQ ID NO.28 in the basis buffer 25 mM His, pH 6 at 10° C. SEQ ID NO.28: (MW=2732.14, no W, Y, or C). A working solution of 55 μM was prepared by diluting 30 μL of a 5 mg/mL peptide solution with 970 μL of 25 mM His, pH 6 buffer to be used for the ITC titrations. A 1.15 μM (0.1706 mg/ml) working solution of MEDI-524 was used for the experiments (MW 148400, A280=1.47).
For this set of experiments, […] (1.16 μM-148.4 KDa) of MEDI-524 Mab and 0.088 mg/mL (1.88 μM-46.3 KDa) of MEDI-524 Fab, both in 25 mM His, pH 6.07 were used. On the other hand, 250 μL of 1 mg/mL of the different peptides dissolved in H2O, were provided by ABC. The peptides were then diluted into the appropriate volume of buffer to give a final concentration of 50 μM. The ITC experiments were run at 18° C. with the macromolecule (Mab or Fab) in the cell, by doing ˜26 injections of 10 μL of peptides, spaced 360 sec with constant stirring. The data fitting was accomplished by subtracting the average value of the few last injections as the buffer and unspecific heat of dilution contributions. […]

[1] = tested on: RSV MARM B2 (F protein K272M); assay: Microneutralization assay of MARM B2; conditions: selection Synagis ®
[2] = tested on: RSV MARM B9 (F protein K272Q); assay: Microneutralization assay of MARM B9; conditions: selection Synagis ®
[3] = tested on: RSV MARM #13 (F protein N262K, K272Q); assay: Microneutralization assay of MARM #13; conditions: MARM #13, N262K and K272Q, selection Synagis ® then A4b4
[4] = tested on: RSV MARM B7 (F protein K272T); assay: Microneutralization assay of MARM B7; conditions: selection Synagis ®
[5] = tested on: RSV MARM B1 (F protein K272N); assay: Microneutralization assay of monoclonal antibody resistant mutant (MARM) B1; conditions: selection Synagis ®
[6] = tested on: RSV MARMs #6 and NuMARM3 (F protein K272E); assay: Microneutralization assay of K272E MARMs; conditions: for Neutralization of RSV: residue 272 altered from lysine (K) to glutamic acid (E)
[7] = tested on: RSV MARM #10 (F protein K272E, N276Y); assay: Microneutralization assay of MARM #10; conditions: MARM #10, K272E and N276Y, selection A4b4
[8] = tested on: RSV with F protein mutations at position 272 other than K272E; assay: Microneutralization assay of MARMs, other mutations at position 272; conditions: all other mutations indicated at position 272
RSV F protein = assay: BIAcore analysis of Numax Ref. Std.; assay type: binding; conditions: Numax reference standard
Excerpt: BIAcore analysis can measure the kinetic interactions of anti-RSV antibodies with RSV F peptides by surface plasmon resonance using a BIAcore 1000, 2000, or 3000 instrument (Biacore, Uppsala, Sweden). Purified recombinant, C-terminally truncated F protein was covalently coupled to a (1-ethyl-3-[3-dimethylaminopropyl]carbodiimide hydrochloride)/N-hydroxysuccinimide-activated CM5 sensor chip at a low protein density (see Johnsson et al. (1991) Anal. Biochem. 198, 268-277). The unreacted active ester groups were blocked with 1 M ethanolamine. For use as a reference, when the BIAcore 2000 or 3000 instrument was used, a blank surface, containing no antigen, was prepared under identical immobilization conditions. To minimize binding variations caused by different lots of F proteins, most of the antibodies were measured against the same lot of F protein. In several cases when different lots of F proteins were used, their binding to an anti-RSV antibody was used as a reference to make sure that these lots had similar binding characteristics to the lot that is used mainly. A serial 2-fold dilution series of purified antibodies, ranging from 0.2 to 100 nm in HBS/Tween 20 buffer (BIAcore), was injected over the F-protein and reference cell surfaces, which were connected in series. In each measurement, the residual antibody was removed from the sensor chip by a brief pulse of 100 mM HCl. The binding curves were globally fitted to a 1:1 Langmuir binding model using the BIAevaluation program. This algorithm calculates both kon and koff. The apparent equilibrium dissociation constant, Kd, was deduced as the ratio of the two rate constants, koff/kon.

[9] = MARM NuMARM3, K272E, selection Numax ™

Numax™, sequence (P01857 with tags, fused parts or gaps limits assumed, other chains not shown): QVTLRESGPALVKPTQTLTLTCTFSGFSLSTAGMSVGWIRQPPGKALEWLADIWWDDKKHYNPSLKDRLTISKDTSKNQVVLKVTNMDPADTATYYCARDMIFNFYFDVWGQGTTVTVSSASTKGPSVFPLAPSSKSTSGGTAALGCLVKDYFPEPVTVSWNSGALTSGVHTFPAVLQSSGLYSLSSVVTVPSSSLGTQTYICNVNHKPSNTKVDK
T1 sequence (P01857 with tags, fused parts or gaps limits assumed, other chains not shown): as above
Numax™ (MEDI-524), sequence (P01857 with tags, fused parts or gaps limits assumed, other chains not shown): as above

Row | Molecule | Ka (association constant) (MEDI-524 Fab) [M⁻¹] | ΔHbinding (MEDI-524 Fab) [kcal/mol] | ΔSbinding (MEDI-524 Fab) | ka (Numax™) | kd (Numax™) | Kd (Numax™) | Neutraliz by antibody ? [1] | Neutraliz by antibody ? [2] | Neutraliz by antibody ? [3] | Neutraliz by antibody ? [4] | Neutraliz by antibody ? [5] | Neutraliz by antibody ? ([6]; MARM #6, K272E, selection A4b4) | Neutraliz by antibody ? [6, 9] | Neutralization of RSV [6] | Neutraliz by antibody ? [7] | further results
1 | F peptide with a histidine at position 262: F peptide with histidine at position 262 tested in the Numax binding ELISA; probably SEQ ID No. 13 (NSELLSLIHDMPITNDQKKLMSNN; Derived from respiratory syncytial virus sequence) |  |  |  |  |  |  |  |  |  |  |  |  |  |  |  | Binding to Numax™ compared with wild-type F protein epitope (SEQ ID NO.1) (Numax™ (MEDI-524)): more tightly
2 | NSELLSLIHDMPITNDQKKLMSNNVQIVRQ-NH2 (C-terminus assumed) [SEQ ID NO: 25] | 6.5e+06 | -10.4 | −4.7 | 2.50E+05 and 3.62E+05 | 1.81E−03 and 1.97E−03 | 7.23 nM and 5.44 nM |  |  |  |  |  |  |  |  |  | 
3 | NSELLSLINDMPITNDQKKLMSNN-NH2 [SEQ ID NO.28] |  |  |  |  |  |  |  |  |  |  |  |  |  |  |  | binding strength compared to the SEQ ID NO.24 peptide (MEDI-524 Mab): ~3 orders of magnitude lower
4 | STYMLTNSELLSLIHDMPITNDQKKLMSNN-NH2 (C-terminus assumed) [SEQ ID NO: 26] | 7.1e+06 | -11.4 | −8.1 | 2.43E+05 | 5.52E−03 | 22.7 nM |  |  |  |  |  |  |  |  |  | 
5 | Synagis ®: humanized RSV monoclonal antibody directed against the F glycoprotein of RSV [reference compound] |  |  |  |  |  |  | No | No | No | No | No | No | No | longer neutralized RSV | No | Neutraliz by antibody ? ([3]; listed as Synagis®): lost their ability to neutralize
6 | Numax ™: enhanced potency RSV-specific monoclonal antibody derived by in vitro affinity maturation of palivizumab (antibody, listed as Chimaera sp., V domains shown) VH: QVTLRESGPALVKPTQTLTLTCTFSGFSLSTAGMSVGWIRQPPGKALEWLADIWWDDKKHYNPSLKDRLTISKDTSKNQVVLKVTNMDPADTATYYCARDMIFNFYFDVWGQGTTVTVSS VL: DIQMTQSPSTLSASVGDRVTITCSASSRVGYMHWYQQKPGKAPKLLIYDTFFLDSGVPSRFSGSGSGTEFTLTISSLQPDDFATYYCFQGSGYPFTFGGGTKVEIK |  |  |  |  |  |  | Yes | Yes | No | Yes | Yes | No | No | longer neutralized RSV | No | Neutraliz by antibody ? ([2]; listed as Numax™): did not knock out Numax™ neutralization; Neutraliz by antibody ? ([3]; listed as Numax™): lost their ability to neutralize; Ability to neutralize RSV [8]: retain its ability to neutralize; Kd (RSV F protein): 0.004 nM; ka (RSV F protein): 4.70E+05; kd (RSV F protein): 1.88E−06

— patent US20060099220A1, “Antibodies against and methods for producing vaccines for respiratory syncytial virus” (MEDIMMUNE, INC., priority 2004, published 2006)
